Biological target: T1, calcium receptor (CasR) (Homo sapiens, UniProt P41180)
T1 construct: expressed in transfected cells; host or cells: HEK 293
T1 sequence (P41180 20-1078): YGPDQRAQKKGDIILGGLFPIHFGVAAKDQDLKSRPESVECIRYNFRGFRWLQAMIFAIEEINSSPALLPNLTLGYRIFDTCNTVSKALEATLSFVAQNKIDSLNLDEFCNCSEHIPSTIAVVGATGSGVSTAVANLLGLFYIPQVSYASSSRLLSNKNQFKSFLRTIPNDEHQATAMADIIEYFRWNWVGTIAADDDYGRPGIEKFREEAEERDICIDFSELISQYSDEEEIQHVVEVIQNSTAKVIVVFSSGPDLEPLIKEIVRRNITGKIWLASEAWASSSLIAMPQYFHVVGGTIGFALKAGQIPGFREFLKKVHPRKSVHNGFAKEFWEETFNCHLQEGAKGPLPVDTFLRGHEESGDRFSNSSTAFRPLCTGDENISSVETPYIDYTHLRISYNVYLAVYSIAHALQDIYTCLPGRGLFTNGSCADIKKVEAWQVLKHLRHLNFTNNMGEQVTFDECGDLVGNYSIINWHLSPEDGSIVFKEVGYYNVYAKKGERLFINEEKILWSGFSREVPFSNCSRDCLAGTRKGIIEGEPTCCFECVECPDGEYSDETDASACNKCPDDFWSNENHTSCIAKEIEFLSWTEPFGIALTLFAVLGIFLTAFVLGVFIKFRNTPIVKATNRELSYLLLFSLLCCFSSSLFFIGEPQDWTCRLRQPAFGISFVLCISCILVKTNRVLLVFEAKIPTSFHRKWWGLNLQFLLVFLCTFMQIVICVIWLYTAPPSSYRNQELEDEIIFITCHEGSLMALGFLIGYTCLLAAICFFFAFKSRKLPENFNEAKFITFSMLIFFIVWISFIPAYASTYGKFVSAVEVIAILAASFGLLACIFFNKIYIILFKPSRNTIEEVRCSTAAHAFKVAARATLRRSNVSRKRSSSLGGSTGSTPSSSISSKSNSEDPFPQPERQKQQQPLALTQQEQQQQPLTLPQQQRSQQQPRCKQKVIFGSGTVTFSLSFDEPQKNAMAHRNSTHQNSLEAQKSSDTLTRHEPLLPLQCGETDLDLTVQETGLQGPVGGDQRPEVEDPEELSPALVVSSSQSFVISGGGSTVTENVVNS
Test: FLIPR Assay for Evaluating the Potency and Selectivity of Test Compounds
Type: cell-based
Conditions: HEK 293 cells expressing CasR; 30 minutes pre-incubation; stimulation by 1.7 mM Ca2+; read 42 seconds after stimulation
Source text: FLIPR Assay for Evaluating the Potency and Selectivity of Test Compounds
Human kidney cell (HEK 293) expressing the calcium receptor (CasR) are used to detect antagonists of the receptor using Fluorometric imaging plate reader (FLIPR, Molecular Devices, Sunnyvale Calif.). Receptor activation by extracellular calcium results in the release of calcium from intracellular stores into the cytosol. A fluorescent indicator (Fluo-4) is internalized by the cells from growth media and interacts with calcium released into the cytosol to provide a means of quantifying intracellular Ca^2+ levels and receptor agonism/antagonism. Fluorescence intensity is detected by the FLIPR CCD camera and traced as a function of time. Potential antagonists are identified by their ability to decrease this fluorescent response.
Prior to the addition of test compound cells are washed with a 10 mM HEPES buffer solution. The test compound, for example the compound of Example 1, is added at various doses (from 1 µM to 3 nM) and pre-incubated with cells for 30 minutes followed by stimulation of the CasR by the addition of 1.7 mM Ca^2+. IC50 values are based on the ability of the cells to inhibit the Ca^2+ induced increase in intracellular Ca^2+. Fluorescence signal is read 42 seconds after the stimulation of the CasR by the addition of 1.7 mM Ca^2+.
The following table provides FLIPR IC50 data for the specified Examples. The IC50s are reported as micromolar concentration with n being the number of times the particular compound was assayed.

| SMILES | IC50 [nM] |
| --- | --- |
| C[C@@H](Cc1ccc(F)c(F)c1)n1c(-c2ncccc2O)nc2ccnc(C(F)(F)F)c2c1=O [Example 37b, (S)-3-(1-(3,4-difluorophenyl)propan-2-yl)-2-(3-hydroxypyridin-2-yl) 5-(trifluoromethyl)pyrido[4,3-d]pyrimidin-4(3H)-one] | 2120 |
| COc1cccc(CCn2c(-c3ncccc3O)nc3ccnc(C(F)(F)F)c3c2=O)c1F [Example 70, 3-(2-fluoro-3-methoxyphenethyl)-2-(3-hydroxypyridin-2-yl)-5-(trifluoromethyl)pyrido[4,3-d]pyrimidin-4(3H)-one] | 61900 |
| C[C@@H](Cc1ccccc1)n1c(-c2ccccc2O)nc2ccnc(C(F)(F)F)c2c1=O [Example 4b, (S)-2-(2-Hydroxy-phenyl)-3-(1-methyl-2-phenyl-ethyl)-5-trifluoromethyl-3H-pyrido[4,3-d]pyrimidin-4-one] | 160 |
| CCC(Cc1ccccc1F)n1c(-c2ncccc2O)nc2ccnc(C(F)(F)F)c2c1=O (centres unmarked) [Example 44, 3-(1-(2-fluorophenyl)butan-2-yl)-2-(3-hydroxypyridin-2-yl)-5-(trifluoromethyl)pyrido[4,3-d]pyrimidin-4(3H)-one] | 2440 |
| O=c1c2c(C(F)(F)F)nccc2nc(-c2ccccc2C(F)(F)F)n1CCC1CCCCC1 [Example 81, 3-(2-cyclohexylethyl)-5-(trifluoromethyl)-2-(2-(trifluoromethyl)phenyl)pyrido[4,3-d]pyrimidin-] | 7890 |
| CN(C)c1nccc2nc(-c3ccccc3O)n(CCc3ccccc3)c(=O)c12 [Example 21, 5-Dimethylamino-2-(2-hydroxy-phenyl)-3-phenethyl-3H-pyrido[4,3-d]pyrimidin-4-one] | 13800 |
| C[C@H](Cc1ccccc1)n1c(-c2ncccc2C(F)(F)F)nc2ccnc(C(F)(F)F)c2c1=O [Example 77] | 700 |
| O=c1c2c(C(F)(F)F)nccc2nc(-c2ccccc2C(F)F)n1CCc1ccccc1 [Example 79, 2-(2-(difluoromethyl)phenyl)-3-phenethyl-5-(trifluoromethyl)pyrido[4,3-d]pyrimidin-4(3H)-one] | 390 |
| CS(=O)(=O)Nc1cccnc1-c1nc2ccnc(C(F)(F)F)c2c(=O)n1CCc1ccccc1 [Example 64, N-(2-(4-oxo-3-phenethyl-5-(trifluoromethyl)-3,4-dihydropyrido[4,3-d]pyrimidin-2-yl)pyridin-3-yl)methanesulfonamide] | 61800 |
| O=c1c2c(N3CCNCC3)nccc2nc(-c2ccccc2O)n1CCc1ccccc1 [Example 20, 2-(2-Hydroxy-phenyl)-3-phenethyl-5-piperazin-1-yl-3H-pyrido[4,3-d]pyrimidin-4-one] | > 100000 |
| CC(C)c1nc2ccnc(C(F)(F)F)c2c(=O)n1CCc1ccccc1 [Example 58, 2-isopropyl-3-phenethyl-5-(trifluoromethyl)pyrido[4,3-d]pyrimidin-4(3H)-one] | 4680 |
| Cc1cc(-c2nccc3nc(-c4ccccc4O)n(CCc4ccccc4)c(=O)c23)cnc1N(C)C [Example 28, 5-(6-Dimethylamino-5-methyl-pyridin-3-yl)-2-(2-hydroxy-phenyl)-3-phenethyl-3H-pyrido[4,3-d]pyrimidin-4-one] | 4830 |
| COc1ccc(F)c(CCn2c(-c3ncccc3O)nc3ccnc(C(F)(F)F)c3c2=O)c1 [Example 69, 3-(2-fluoro-5-methoxyphenethyl)-2-(3-hydroxypyridin-2-yl)-5-(trifluoromethyl)pyrido[4,3-d]pyrimidin-4(3H)-one] | 66900 |
| C[C@H](Cc1ccccc1)n1c(-c2ncccc2O)nc2ccnc(C(F)(F)F)c2c1=O [Example 5, (R)-2-(3-Hydroxy-pyridin-2-yl)-3-(1-methyl-2-phenyl-ethyl)-5-trifluoromethyl-3H-pyrido[4,3-d]pyrimidin-4-one] | 20 |
| O=c1c2c(N3CCOCC3)nccc2nc(-c2ccccc2O)n1CCc1ccccc1 [Example 22, 2-(2-Hydroxy-phenyl)-5-morpholin-4-yl-3-phenethyl-3H-pyrido[4,3-d]pyrimidin-4-one] | > 100000 |
| O=c1c2c(-c3ccc(N4CCCC4)nc3)nccc2nc(-c2ccccc2O)n1CCc1ccccc1 [Example 29, 5-(6-pyrrolidine-5-pyridin-3-yl)-2-(2-hydroxy-phenyl)-3-phenethyl-3H-pyrido[4,3-d]pyrimidin-4-one] | 490 |
| CC(Cc1ccccc1F)n1c(-c2ncccc2O)nc2ccnc(C(F)(F)F)c2c1=O (single isomer, unassigned) [Example 6b, 2-(3-Hydroxy-pyridin-2-yl)-3-(1-methyl-2-(2-fluorophenyl)ethyl)-5-trifluoromethyl-3H-pyrido[4,3-d]pyrimidin-4-one] | 1400 |

The next lines start with the values.

| IC50 [nM] | SMILES |
| --- | --- |
| 230 | CC(=O)Nc1cccnc1-c1nc2ccnc(C(F)(F)F)c2c(=O)n1CCc1ccccc1F [Example 52, N-(2-(3-(2-fluorophenethyl)-4-oxo-5-(trifluoromethyl)-3,4-dihydropyrido[4,3-d]pyrimidin-2-yl)pyridin-3-yl)acetamide] |
| 70 | O=c1c2c(C(F)(F)F)nccc2nc(-c2ncccc2O)n1CCc1ccc(F)c(F)c1 [Example 13, 3-[2-(3,4-Difluoro-phenyl)-ethyl]-2-(3-hydroxy-pyridin-2-yl)-5-trifluoromethyl-3H-pyrido[4,3-d]pyrimidin-4-one] |
| 460 | O=c1c2c(C(F)(F)F)nccc2nc(-c2cccc(F)c2O)n1CCc1cccc(F)c1 [Example 11, 2-(3-Fluoro-2-hydroxy-phenyl)-3-[2-(3-fluoro-phenyl)-ethyl]-5-trifluoromethyl-3H-pyrido[4,3-d]pyrimidin-4-one] |
| 290 | O=c1c2c(C(F)(F)F)nccc2nc(-c2cccc(F)c2O)n1CCc1ccccc1F [Example 9, 2-(3-Fluoro-2-hydroxy-phenyl)-3-[2-(2-fluoro-phenyl)-ethyl]-5-trifluoromethyl-3H-pyrido[4,3-d]pyrimidin-4-one] |
| 620 | O=c1c2c(C(F)(F)F)nccc2nc(-c2cccc(F)c2O)n1CCc1ccccc1 [Example 2, 2-(3-Fluoro-2-hydroxy-phenyl)-3-phenethyl-5-trifluoromethyl-3H-pyrido[4,3-d]pyrimidin-4-one] |
| 460 | O=c1c2c(C(F)(F)F)nccc2nc(-c2ncccc2O)n1CCc1cccc(F)c1F [Example 40, 3-(2,3-difluorophenethyl)-2-(3-hydroxypyridin-2-yl)-5-(trifluoromethyl)pyrido[4,3-d]pyrimidin-4(3H)-one] |
| 940 | O=C(Nc1cccnc1-c1nc2ccnc(C(F)(F)F)c2c(=O)n1CCc1ccccc1F)C(F)(F)F [Example 72, N-(2-(3-(2-fluorophenethyl)-4-oxo-5-(trifluoromethyl)-3,4-dihydropyrido[4,3-d]pyrimidin-2-yl)pyridin-3-yl)-2,2,2-trifluoroacetamide] |
| 720 | COc1ccccc1CCn1c(-c2ccccc2O)nc2ccnc(C(F)(F)F)c2c1=O [Example 55, 3-(2-methoxyphenethyl)-2-(2-hydroxyphenyl)-5-(trifluoromethyl)pyrido[4,3-d]pyrimidin-4(3H)-one] |
| 30 | C[C@H](Cc1ccccc1)n1c(-c2cccc(F)c2O)nc2ccnc(C(F)(F)F)c2c1=O [Example 50, (R)-2-(3-fluoro-2-hydroxyphenyl)-3-(1-phenylpropan-2-yl)-5-(trifluoromethyl)pyrido[4,3-d]pyrimidin-4(3H)-one] |
